For nine compounds, TGI and GI50 results are on record in PubChem BioAssay (NCI).

Structures are written as SMILES.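 Following 48 hours of exposure in 96-well plates, responses at five concentrations were used to interpolate endpoints linearly. The concentration for 50% growth inhibition is given as GI50. TGI: total growth inhibition.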

What all share (experiment): NCI-60 cell line screen, 48 h
For experiment [1], the system named is EKVX NSCLC.
Experiment [2] deals with SN12C renal.
In experiment [3] the test system is SW-620 colon.
The test system of experiment [4] is UACC-257 melanoma.
For experiment [5], the system named is OVCAR-3 ovarian.
Experiment [6] concerns ACHN renal.
In experiment [7] the test system is U251 CNS.
The subject of experiment [8] is SK-MEL-28 melanoma.
The subject of experiment [9] is UO-31 renal.
Experiment [10] deals with NCI/ADR-RES ovarian.
For experiment [11], the system named is OVCAR-8 ovarian.
Experiment [12] deals with 786-0 renal.
Experiment [13] deals with HCT-116 colon.
For experiment [14], the system named is HCT-15 colon.
Experiment [15] deals with M14 melanoma.
For experiment [16], the system named is MOLT-4 leukemia.
The test system of experiment [17] is T-47D breast.

With `CC(=O)OCC1OC(c2nc3ccccc3s2)=CC(OC(C)=O)C1OC(C)=O` (stereo not given), the TGI in experiment [1], in experiment [2], in experiment [3], in [4], in [5] and in experiment [6] was above 100 µM throughout. The TGI in experiment [7], in experiment [8], in [9], in experiment [10], in [11] and in experiment [12] was above 100 µM throughout. Also, in experiment [13], the TGI is above 100 µM.

Consider `COc1cccc([C@H]2C/C(=N\NC(=O)C(=O)N[C@@H](C)c3ccccc3)c3ccccc3N2)c1`, for which the TGI in [1] was above 100 µM; in [2], 0.0898 µM; in experiment [3], above 100 µM; in [4] it was above 100 µM; in [5], above 100 µM; in experiment [14] it was above 100 µM. In addition, the TGI in [6] was above 100 µM; in [7], above 100 µM; in experiment [8], above 100 µM; in experiment [9], above 100 µM; in experiment [10] it was 0.0535 µM; in experiment [11] it was 1.05 µM. Further, the TGI in experiment [12] is 97.3 µM; in experiment [15] it was above 100 µM; in experiment [13], 12 µM. Besides, the GI50 in experiment [7] was 0.0325 µM; in [10], below 0.01 µM; in experiment [11], 0.0285 µM.

With `C=CCOC(=O)NC1C(OC(C)[C@@H](NC(=O)OCc2ccccc2)C(=O)OC(C)(C)C)OC(COC(C)=O)C(OC(C)=O)C1OC(C)=O` (stereo not given in full), the TGI in experiment [1], in [2], in experiment [3], in experiment [4], in experiment [5] and in [14] was above 100 µM each time. Besides, the TGI in experiment [6] was above 100 µM; in experiment [7], above 100 µM; in experiment [8] it was above 100 µM; in experiment [9], 47.3 µM; in [16], above 100 µM; in experiment [10], above 100 µM. Further, the TGI in experiment [11], in experiment [12], in experiment [15] and in [13] was above 100 µM each time.

Turning to `O=c1c2nc3ccccc3c(=O)n2ncn1-c1ccccc1Cl`, the TGI in experiment [1], in experiment [2], in experiment [3], in [4], in experiment [5] and in [14] was above 100 µM each time. For the same compound, the TGI in experiment [6], in experiment [7], in experiment [8], in experiment [9], in [11] and in [12] was above 100 µM throughout. Further, the TGI in experiment [15], in experiment [13] and in [17] was above 100 µM each time.

In the case of `N#Cc1c(-c2ccc([N+](=O)[O-])cc2)c(C#N)c(=O)n(NS(=O)(=O)c2ccccc2)c1-c1ccccc1`, the TGI in [1], in experiment [2], in [3], in experiment [4], in experiment [14] and in experiment [6] was above 100 µM in each case. The TGI in [7], in experiment [8], in experiment [16], in [10], in experiment [11] and in experiment [12] was above 100 µM each time. Also, the TGI in [15] and in experiment [13] was above 100 µM in each case.

For `CCCCCCCCCCCCCCCCOCC(CC(F)(F)P(=O)(OCC)OCC)OC(C)=O` (stereo not given), the TGI in experiment [1] stood at 44.9 µM; in experiment [2] it was 44.5 µM; in [3], 29.7 µM; in [4], 33 µM; in experiment [5] it was 31.4 µM; in experiment [14], 20.2 µM. Moreover, the TGI is 27.3 µM in experiment [6]; 13.7 µM in experiment [7]; 32.4 µM in experiment [8]; 29.5 µM in experiment [9]; above 100 µM in [16]; 32.4 µM in [10]. The values for the TGI in [12], in experiment [15] and in experiment [13] were 23 µM, 31.9 µM and 17 µM, respectively.

Turning to `Cc1cn(C2CC(O)C(COC(=O)NCCC(F)(F)C(F)(F)C(F)(F)C(F)(F)F)O2)c(=O)[nH]c1=O` (stereo not given), the TGI in [1], in experiment [2], in [3], in experiment [4], in experiment [5] and in experiment [6] was above 100 µM in each case. In addition, the TGI in experiment [7], in [8], in experiment [9], in [16], in [11] and in [12] was above 100 µM throughout. The TGI in experiment [15], in [13] and in [17] was above 100 µM each time.

Turning to `CC(C)C1=CC23CCC4C(C)(C(=O)O)CCCC4(C)C2CC1C1C(=O)N(c2ccccc2N2C(=O)C4C5CC6C7(C)CCCC(C)(C(=O)O)C7CCC6(C=C5C(C)C)C4C2=O)C(=O)C13` (stereo not given), the TGI in experiment [1] was found to be 17.9 µM; in experiment [2] it was 24.8 µM; in [3] it was 30.6 µM; in [5], 23.4 µM; in [14], 29.8 µM; in [6] it was 21.8 µM. Also, the TGI in experiment [7] amounted to 12 µM; in experiment [9], 32.3 µM; in experiment [16], 14.2 µM; in [12], 62.8 µM; in experiment [15] it was 19.8 µM; in experiment [13], 18.2 µM. Moreover, the TGI in [17] was 42.5 µM.

Take `CCOC(=O)Cn1c(=O)c2nc(SC)sc2n(CC)c1=S`: the TGI in [2], in experiment [3], in experiment [4], in experiment [5], in experiment [14] and in experiment [6] was above 100 µM in each case. In addition, the TGI in experiment [7] was above 100 µM; in experiment [8], above 100 µM; in [9] it was 28.8 µM; in experiment [16], above 100 µM; in [10] it was above 100 µM; in experiment [11], above 100 µM. Further, the TGI in [12] is 0.32 µM; in experiment [15], 17.4 µM; in experiment [13], above 100 µM; in experiment [17] it was above 100 µM.
